Measured values taken from patent US20220151962A1, “NOVEL INHIBITORS OF HISTONE DEACETYLASE 10” (Deutsches Krebsforschungszentrum, priority 2019, published 2022).
“And” between values parts separate entries of the source, which are not always exact repeats. Equal values may be shown once. Read-outs that look alike come from different tables or passages of the source.

Assays:
[1] = molecular target: T1, HDAC1 (Homo sapiens, UniProt Q13547); experiment: HDAC1 (ZMAL) fluorogenic activity assay; type: biochemical; conditions: read-out: HDAC1 (ZMAL) percent enzyme inhibition
T1 construct: purchased BPS Bioscience 50051
T1 sequence (Q13547 whole entry): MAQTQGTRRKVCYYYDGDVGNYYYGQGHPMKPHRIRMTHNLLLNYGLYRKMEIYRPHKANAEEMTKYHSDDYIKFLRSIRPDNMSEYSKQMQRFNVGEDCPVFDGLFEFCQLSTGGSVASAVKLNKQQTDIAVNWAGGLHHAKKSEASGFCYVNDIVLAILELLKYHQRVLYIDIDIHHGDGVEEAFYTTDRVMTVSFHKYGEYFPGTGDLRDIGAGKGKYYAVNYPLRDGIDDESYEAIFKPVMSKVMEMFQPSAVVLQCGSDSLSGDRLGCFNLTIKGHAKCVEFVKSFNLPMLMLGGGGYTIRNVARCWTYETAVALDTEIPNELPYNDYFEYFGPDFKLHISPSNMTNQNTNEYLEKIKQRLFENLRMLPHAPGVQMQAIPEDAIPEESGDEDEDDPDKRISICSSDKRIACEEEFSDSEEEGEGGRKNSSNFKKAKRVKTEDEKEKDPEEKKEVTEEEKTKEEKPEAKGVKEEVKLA

[2] = molecular target: T2, zebrafish HDAC10 (Danio rerio, UniProt F1QCV2); experiment: Zebrafish HDAC10 assay (zHDAC10), Ac-spermidine-AMC substrate; type: biochemical; conditions: for inhibition at 0.1 µM / inhibition at 1 µM / inhibition at 10 µM: read-out: zHDAC10 percent enzyme inhibition
T2 sequence (F1QCV2 1-675): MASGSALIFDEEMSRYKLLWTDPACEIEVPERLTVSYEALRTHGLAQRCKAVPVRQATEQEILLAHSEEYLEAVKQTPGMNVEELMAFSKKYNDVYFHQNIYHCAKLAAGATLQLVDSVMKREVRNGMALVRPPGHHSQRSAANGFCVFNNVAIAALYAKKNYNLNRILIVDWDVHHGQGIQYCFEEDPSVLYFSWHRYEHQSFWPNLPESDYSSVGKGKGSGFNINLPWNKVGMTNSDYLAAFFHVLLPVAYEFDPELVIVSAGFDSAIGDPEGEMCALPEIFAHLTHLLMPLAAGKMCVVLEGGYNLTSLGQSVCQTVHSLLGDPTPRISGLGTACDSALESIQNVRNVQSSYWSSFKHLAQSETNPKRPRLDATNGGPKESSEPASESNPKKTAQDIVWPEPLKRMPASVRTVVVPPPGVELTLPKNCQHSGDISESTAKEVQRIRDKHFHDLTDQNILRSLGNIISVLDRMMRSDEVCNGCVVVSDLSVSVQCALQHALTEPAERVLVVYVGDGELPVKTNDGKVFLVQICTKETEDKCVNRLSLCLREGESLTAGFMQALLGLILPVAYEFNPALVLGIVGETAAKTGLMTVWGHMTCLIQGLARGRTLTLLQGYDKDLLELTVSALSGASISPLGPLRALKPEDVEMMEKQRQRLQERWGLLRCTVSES

[3] = molecular target: T3, HDAC8 (Homo sapiens, UniProt Q9BY41); experiment: HDAC8 (FDL) Fluor de Lys assay; type: biochemical; set-up: obtained from C; Romier (academic laboratory, not a vendor); conditions: for inhibition at 1 µM / inhibition at 10 µM: read-out: HDAC8 (FDL) percent enzyme inhibition
T3 sequence (Q9BY41 1-377): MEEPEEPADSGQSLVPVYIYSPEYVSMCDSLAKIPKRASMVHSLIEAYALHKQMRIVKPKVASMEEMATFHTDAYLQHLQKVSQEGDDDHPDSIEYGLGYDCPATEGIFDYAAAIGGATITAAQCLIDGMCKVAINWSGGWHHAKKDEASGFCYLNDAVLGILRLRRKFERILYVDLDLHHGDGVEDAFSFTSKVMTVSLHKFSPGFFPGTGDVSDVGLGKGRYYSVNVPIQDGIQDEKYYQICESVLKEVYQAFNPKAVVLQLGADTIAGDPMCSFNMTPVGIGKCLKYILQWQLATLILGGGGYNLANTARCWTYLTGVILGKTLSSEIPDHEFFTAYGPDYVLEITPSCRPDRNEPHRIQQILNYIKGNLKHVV

[4] = molecular target: T4, TwinStrep-GST-HDAC10 (Homo sapiens, UniProt Q969S8); experiment: HDAC10 TR-FRET assay (Tubastatin-AF647-Tracer displacement); type: binding
T4 construct: made in house; host or cells: Sf21 insect cells (baculovirus, pFastBac1)
T4 sequence (Q969S8 1-669): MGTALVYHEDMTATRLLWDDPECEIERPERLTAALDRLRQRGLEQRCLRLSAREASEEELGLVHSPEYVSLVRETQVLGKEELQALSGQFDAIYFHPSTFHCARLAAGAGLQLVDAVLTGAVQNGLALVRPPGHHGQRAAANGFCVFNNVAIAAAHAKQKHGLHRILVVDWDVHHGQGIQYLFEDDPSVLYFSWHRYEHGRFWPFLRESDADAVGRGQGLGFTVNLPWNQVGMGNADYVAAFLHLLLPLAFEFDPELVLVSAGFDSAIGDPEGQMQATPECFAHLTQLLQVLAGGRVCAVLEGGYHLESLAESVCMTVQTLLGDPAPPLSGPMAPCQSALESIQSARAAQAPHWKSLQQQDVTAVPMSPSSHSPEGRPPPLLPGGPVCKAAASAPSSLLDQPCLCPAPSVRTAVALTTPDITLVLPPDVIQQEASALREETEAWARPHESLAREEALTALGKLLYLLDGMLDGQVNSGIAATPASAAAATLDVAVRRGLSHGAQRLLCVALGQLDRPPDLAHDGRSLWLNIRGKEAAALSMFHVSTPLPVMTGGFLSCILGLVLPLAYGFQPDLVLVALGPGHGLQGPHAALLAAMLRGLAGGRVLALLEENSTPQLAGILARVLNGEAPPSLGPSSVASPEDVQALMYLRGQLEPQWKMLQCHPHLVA

[5] = molecular target: T5, HDAC6 (Homo sapiens, UniProt Q9UBN7); experiment: HDAC6 (ZMAL) fluorogenic activity assay; type: biochemical
T5 construct: purchased BPS Bioscience 50006
T5 sequence (Q9UBN7 1-1215): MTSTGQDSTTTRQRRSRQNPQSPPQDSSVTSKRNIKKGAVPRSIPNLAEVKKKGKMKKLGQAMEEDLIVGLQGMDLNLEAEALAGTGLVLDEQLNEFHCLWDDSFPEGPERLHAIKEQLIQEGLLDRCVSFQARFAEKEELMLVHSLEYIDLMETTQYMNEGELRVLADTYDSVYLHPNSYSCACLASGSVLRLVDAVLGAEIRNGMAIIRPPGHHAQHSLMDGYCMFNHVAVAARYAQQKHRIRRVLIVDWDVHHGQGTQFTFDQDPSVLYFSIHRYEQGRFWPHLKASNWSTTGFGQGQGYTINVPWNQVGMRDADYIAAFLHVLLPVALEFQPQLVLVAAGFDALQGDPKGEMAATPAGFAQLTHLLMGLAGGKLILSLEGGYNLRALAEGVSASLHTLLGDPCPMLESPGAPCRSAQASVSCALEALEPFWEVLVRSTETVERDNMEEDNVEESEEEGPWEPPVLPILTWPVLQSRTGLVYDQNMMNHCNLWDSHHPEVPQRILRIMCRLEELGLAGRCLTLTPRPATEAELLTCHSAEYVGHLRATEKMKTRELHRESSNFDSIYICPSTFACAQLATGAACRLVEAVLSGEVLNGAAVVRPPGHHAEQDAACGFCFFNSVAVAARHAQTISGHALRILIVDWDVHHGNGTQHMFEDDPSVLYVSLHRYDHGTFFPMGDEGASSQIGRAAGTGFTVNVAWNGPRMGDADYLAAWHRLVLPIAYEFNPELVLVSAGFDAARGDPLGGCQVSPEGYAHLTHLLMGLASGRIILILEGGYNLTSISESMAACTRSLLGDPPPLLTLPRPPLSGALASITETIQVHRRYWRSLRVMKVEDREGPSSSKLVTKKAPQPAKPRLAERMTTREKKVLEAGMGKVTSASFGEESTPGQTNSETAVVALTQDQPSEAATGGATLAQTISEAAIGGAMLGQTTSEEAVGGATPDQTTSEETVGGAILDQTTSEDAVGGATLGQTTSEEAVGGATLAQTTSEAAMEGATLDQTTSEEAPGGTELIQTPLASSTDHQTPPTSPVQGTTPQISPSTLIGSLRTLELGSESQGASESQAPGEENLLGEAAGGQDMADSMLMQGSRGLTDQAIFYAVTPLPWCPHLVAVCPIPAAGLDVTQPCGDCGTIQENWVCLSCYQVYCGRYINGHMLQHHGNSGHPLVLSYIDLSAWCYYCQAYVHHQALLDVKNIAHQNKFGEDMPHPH

[6] = molecular target: T6, HDAC10-nanoluciferase fusion in HeLa cells (Homo sapiens, UniProt Q969S8); experiment: BRET intracellular target engagement assay, HDAC10
T6 sequence (Q969S8 1-669): T4 sequence (Q969S8 1-669)

[7] = molecular target: T7, HDAC3/NcoR2 complex (Homo sapiens, UniProt O15379); experiment: HDAC-Glo I/II assay, HDAC3/NcoR2 complex; type: biochemical; conditions: recombinant human HDAC3/NcoR2 complex, read-out: pIC50 HDAC3 Glo (converted)
T7 construct: purchased BPS Bioscience 50003
T7 sequence (O15379 whole entry): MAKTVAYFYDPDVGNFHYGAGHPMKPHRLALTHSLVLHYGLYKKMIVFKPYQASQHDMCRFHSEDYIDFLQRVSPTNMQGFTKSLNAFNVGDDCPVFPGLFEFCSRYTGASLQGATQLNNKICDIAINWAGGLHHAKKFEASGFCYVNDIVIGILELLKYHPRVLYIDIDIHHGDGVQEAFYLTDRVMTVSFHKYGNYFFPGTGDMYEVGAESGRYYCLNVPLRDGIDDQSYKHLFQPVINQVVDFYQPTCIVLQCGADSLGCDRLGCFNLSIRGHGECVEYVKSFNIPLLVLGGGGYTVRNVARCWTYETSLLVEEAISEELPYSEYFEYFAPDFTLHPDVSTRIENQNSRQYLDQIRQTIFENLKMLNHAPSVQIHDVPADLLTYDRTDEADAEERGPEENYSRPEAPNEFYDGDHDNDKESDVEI
T7 sequence (Q9Y618 395-489 partner limits assumed): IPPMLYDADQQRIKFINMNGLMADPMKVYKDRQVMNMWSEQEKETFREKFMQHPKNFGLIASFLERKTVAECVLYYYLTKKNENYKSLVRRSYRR

[8] = molecular target: T3, HDAC8; experiment: HDAC-Glo I/II assay, HDAC8; type: biochemical; set-up: purchased BPS Bioscience 50008; conditions: recombinant human HDAC8, HDAC-Glo; read-out: pIC50 HDAC8 Glo (converted)
[9] = molecular target: T5, HDAC6; experiment: HDAC-Glo I/II assay, HDAC6; type: biochemical; conditions: recombinant human HDAC6, HDAC-Glo; read-out: pIC50 HDAC6 Glo (converted)
[10] = molecular target: T8, HDAC2 (Homo sapiens, UniProt Q92769); experiment: HDAC-Glo I/II assay, HDAC2; type: biochemical; conditions: recombinant human HDAC2, HDAC-Glo; read-out: pIC50 HDAC2 Glo (converted)
T8 construct: purchased BPS Bioscience 50002
T8 sequence (Q92769 whole entry): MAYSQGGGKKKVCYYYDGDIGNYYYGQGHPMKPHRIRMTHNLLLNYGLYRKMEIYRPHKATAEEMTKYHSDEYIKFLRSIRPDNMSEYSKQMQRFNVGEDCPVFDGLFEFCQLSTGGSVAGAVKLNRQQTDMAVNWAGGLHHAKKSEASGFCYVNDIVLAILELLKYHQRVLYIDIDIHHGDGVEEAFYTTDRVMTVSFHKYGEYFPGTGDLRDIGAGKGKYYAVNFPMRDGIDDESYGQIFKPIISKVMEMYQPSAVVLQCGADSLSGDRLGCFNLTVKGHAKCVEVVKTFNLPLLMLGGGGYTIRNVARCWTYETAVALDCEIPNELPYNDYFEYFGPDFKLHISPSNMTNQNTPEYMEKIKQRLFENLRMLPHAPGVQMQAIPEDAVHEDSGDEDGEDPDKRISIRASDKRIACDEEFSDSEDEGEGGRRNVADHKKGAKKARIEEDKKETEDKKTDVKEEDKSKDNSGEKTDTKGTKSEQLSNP

[11] = molecular target: T1, HDAC1; experiment: HDAC-Glo I/II assay, HDAC1; type: biochemical; conditions: recombinant human HDAC1, HDAC-Glo; read-out: pIC50 HDAC1 Glo (converted)
[12] = two separate measurements, each made in triplicate, read-out: HDAC10 FRET IC50
[13] = read-out: HDAC6 (ZMAL) percent enzyme inhibition
[14] = TR-FRET, 60 min at rt, read-out: pIC50 HDAC10 FRET (converted)

| Compound | inhibition at 1 µM [1] | inhibition at 10 µM [1] | inhibition at 0.1 µM [2] | inhibition at 1 µM [2] | inhibition at 10 µM [2] | inhibition at 1 µM [3] | inhibition at 10 µM [3] | IC50 [4, 12] | inhibition at 1 µM [5, 13] | inhibition at 10 µM [5, 13] | IC50 [7] | IC50 [8] | IC50 [9] | IC50 [10] | IC50 [4, 14] | IC50 [11] | other results |
| --- | --- | --- | --- | --- | --- | --- | --- | --- | --- | --- | --- | --- | --- | --- | --- | --- | --- |
| O=C(NO)C1CCN(Cc2ccccc2)CC1 [DH25, 1-Benzyl-N-hydroxypiperidine-4-carboxamide] | 8% | 18% | 9% | 15% | 50% | 36% | 61% | 2.45 µM and 3.43 µM | 22% | 46% | – | – | – | – | – | – | – |
| CN(CCCC(=O)NO)CCc1nc2ccccc2[nH]1 [DKFZ-773, 4-((2-(Benzimidazol-2-yl)ethyl)(methyl)amino)-N-hydroxybutanamide] | – | – | – | – | – | – | – | – | – | – | > 100 µM | 5.01 µM | 1 µM | 25.1 µM | 0.00631 µM | 10 µM | IC50 [6]: 0.126 µM; HDAC10/6 fold selectivity (BRET) ([6]; HDAC10 over HDAC6, from BRET): 315 fold |
| O=C(NO)C1CCN(CCNCc2ccccc2)CC1 [DH79, 1-(2-(Benzylamino)ethyl)-N-hydroxypiperidine-4-carboxamide] | 6% | 20% | – | – | – | – | – | – | -15% | 0% | – | – | – | – | – | – | IC50 [2]: 0.064 ± 0.006 µM; IC50 [3]: 2 ± 0.3 µM |
| O=C(NO)C1CCN(CC(c2ccccc2)c2ccccc2)CC1 [DH40, 1-(2,2-Diphenylethyl)-N-hydroxypiperidine-4-carboxamide] | -7% | 8% | 1% | 9% | 27% | 42% | 75% | 2.32 µM and 2.97 µM | 19% | 65% | – | – | – | – | – | – | inhibition at 50 µM ([1]; at 50 μM): 24%; inhibition at 50 µM ([5]; at 50 μM, read-out: HDAC6 (ZMAL) percent enzyme inhibition): 88% |
| O=C(NO)C1CCN(CCc2ccccc2)CC1 [DH22, N-Hydroxy-1-phenethylpiperidine-4-carboxamide] | -1% | 7% | 13% | 20% | 80% | 27% | 56% | 0.175 µM and 0.26 µM | -2% | 17% | – | – | – | – | – | – | – |
| CN(CCCC(=O)NO)CCNC(=O)c1ccccc1Br [DKFZ-753, 2-Bromo-N-(2-((4-(hydroxyamino)-4-oxobutyl)(methyl)amino)ethyl)benzamide] | – | – | – | – | – | – | – | – | – | – | > 100 µM | 7.94 µM | 6.31 µM | > 100 µM | 0.0158 µM | 25.1 µM | – |
| O=C(NO)C1CCN(CCCc2ccccc2)CC1 [DH53, N-Hydroxy-1-(3-phenylpropyl)-piperidine-4-carboxamide] | 2% | 29% | 0% | 19% | 68% | 20% | 48% | – | -23% | -3% | – | – | – | – | – | – | – |
| CN(CCCC(=O)NO)CCNC(=O)c1ccc(O)cc1 [DKFZ-751, 4-Hydroxy-N-(2-((4-(hydroxyamino)-4-oxobutyl)(methyl)amino)ethyl)benzamide] | – | – | – | – | – | – | – | – | – | – | > 100 µM | 25.1 µM | 2 µM | > 100 µM | 0.00794 µM | 15.8 µM | – |
| O=C(NO)C1CCN(CCNCc2ccc(Br)cc2)CC1 [DH88, 1-(2-((4-Bromobenzyl)amino)ethyl)-N-hydroxypiperidine-4-carboxamide] | -8% | 10% | – | – | – | – | – | – | – | – | – | – | – | – | – | – | IC50 [2]: 0.037 ± 0.004 µM; IC50 [3]: 0.7 ± 0.05 µM; IC50 [5]: 15 ± 4 µM |
